According to patent US20240083857A1, “2-Methyl-Quinazolines” (Bayer Pharma Aktiengesellschaft, priority 2017, published 2024):

Key:
[1] = target: human SOS1 (nucleotide exchange of K-Ras^G12C) (Homo sapiens, UniProt Q07889); experiment: Biochemical assay 2: K-Ras^G12C activation assay by hSOS1 at high GTP concentration (HTRF); details: E-notation values; unit inferred; 50 μM GTP; read-out: Assay 2 (KRAS-Activation, high GTP) IC50
[2] = target: human SOS1 (loading of human K-Ras^G12C-GDP with fluorescent GTP-analog) (Homo sapiens, UniProt Q07889); experiment: Biochemical assay 3: K-Ras^G12C activation assay by hSOS1 (HTRF); details: E-notation values; unit inferred; read-out: Assay 3 (KRAS-Activation) IC50

SMILES	IC50 [1] [µM]	IC50 [2] [µM]
COc1cc(C)c2nc(C)nc(N[C@H](C)c3cccc(Cl)c3)c2c1 [Example 396, N-[(1R)-1-(3-chlorophenyl)ethyl]-6-methoxy-2,8-dimethylquinazolin-4-amine]	1.15	3.13
COc1cc2nc(C)nc(NC(C)c3ccc(-c4cccc(Cl)c4CN)s3)c2cc1OC (stereo not drawn) [Example 397, N-[1-{5-[2-(aminomethyl)-3-chlorophenyl]thiophen-2-yl}ethyl]-6,7-dimethoxy-2-methylquinazolin-4-amine]	0.209	0.249
COc1cc2nc(C)nc(NC(C)c3ccc(-c4ccc(Cl)cc4CN)s3)c2cc1OC (stereo not drawn) [Example 398, N-[1-{5-[2-(aminomethyl)-4-chlorophenyl]thiophen-2-yl}ethyl]-6,7-dimethoxy-2-methylquinazolin-4-amine]	0.0634	0.0721
COc1cc2nc(C)nc(NC(C)c3cc(C)c(-c4ccc(F)cc4CN)s3)c2cc1OC (stereo not drawn) [Example 399, N-(1-{5-[2-(aminomethyl)-4-fluorophenyl]-4-methyl-2-thienyl}ethyl)-6,7-dimethoxy-2-methylquinazolin-4-amine]	0.192	0.296
COc1cc2nc(C)nc(NC(C)c3cc(C)c(-c4ccccc4CN(C)C)s3)c2cc1OC (stereo not drawn) [Example 400, N-[1-(5-{2-[(dimethylamino)methyl]phenyl}-4-methyl-2-thienyl)ethyl]-6,7-dimethoxy-2-methylquinazolin-4-amine]	0.0688	0.0766
COc1cc2nc(C)nc(NC(C)c3cc(C)c(-c4ccccc4CN(C)CCO)s3)c2cc1OC (stereo not drawn) [Example 401, 2-{[2-(5-{1-[(6,7-dimethoxy-2-methylquinazolin-4-yl)amino]ethyl}-3-methyl-2-thienyl)benzyl](methyl)amino}ethanol]	0.0652	0.0823
CNCc1ccccc1-c1sc(C(C)Nc2nc(C)nc3cc(OC)c(OC)cc23)cc1C (stereo not drawn) [Example 402, 6,7-di methoxy-2-methyl-N-[1-(4-methyl-5-{2-[(methylamino)methyl]phenyl}thiophen-2-yl)ethyl]quinazolin-4-amine]	0.0752	0.0981
COc1cc2nc(C)nc(NC(C)c3ccc(-c4ccccc4C(O)CO)s3)c2cc1OC (stereo not drawn) [Example 403]	0.548	0.632
Cc1ccc2nc(C)nc(N[C@H](C)c3cccc(Cl)c3)c2c1 [Example 404, N-[(1R)-1-(3-chlorophenyl)ethyl]-2,6-dimethylquinazolin-4-amine]	1.45	9.3
Cc1nc(N[C@H](C)c2cccc(Cl)c2)c2cc(-c3cn[nH]c3)ccc2n1 [Example 405, N-[(1R)-1-(3-chlorophenyl)ethyl]-2-methyl-6-(1H-pyrazol-4-yl)quinazolin-4-amine]	0.448	1.31
Cc1nc(N[C@H](C)c2cccc(Cl)c2)c2cc(-c3cnn(C)c3)ccc2n1 [Example 406, N-[(1R)-1-(3-chlorophenyl)ethyl]-2-methyl-6-(1-methyl-1H-pyrazol-4-yl)quinazolin-4-amine]	0.4	0.855
Cc1nc(N[C@H](C)c2cccc(Cl)c2)c2cc(C3CC3)ccc2n1 [Example 407, N-[(1R)-1-(3-chlorophenyl)ethyl]-6-cyclopropyl-2-methylquinazolin-4-amine]	1.06	2.14
COc1cc2nc(C)nc(NC(C)c3ccc(-c4c(Cl)cccc4CNC(=O)OC(C)(C)C)s3)c2cc1OC (stereo not drawn) [Example 408, tert-butyl [3-chloro-2-(5-{1-[(6,7-dimethoxy-2-methylquinazolin-4-yl)amino]ethyl}thiophen-2-yl)benzyl]carbamate]	0.56	1.02
COc1cc2nc(C)nc(NC(C)c3ccc(-c4c(Cl)cccc4CN)s3)c2cc1OC (stereo not drawn) [Example 409, N-[1-{5-[2-(aminomethyl)-6-chlorophenyl]thiophen-2-yl}ethyl]-6,7-dimethoxy-2-methylquinazolin-4-amine]	0.028	0.0316
COc1cc2nc(C)nc(NC(C)c3ccc(-c4ccnc(O)c4)s3)c2cc1OC (stereo not drawn) [Example 410, 4-(5-{1-[(6,7-dimethoxy-2-methylquinazolin-4-yl)amino]ethyl}-2-thienyl)pyridin-2-ol]	2.79	> 20
COc1cc2nc(C)nc(NC(C)c3ccc(-c4ccccc4C4CC(=O)N4)s3)c2cc1OC (stereo not drawn) [Example 411, 4-[2-(5-{1-[(6,7-dimethoxy-2-methylquinazolin-4-yl)amino]ethyl}thiophen-2-yl)phenyl]azetidin-2-one]	> 20	> 20
COc1cc2nc(C)nc(NC(C)c3ccc(-c4ccc(C#N)cc4CN(C)C)s3)c2cc1OC (stereo not drawn) [Example 413, 4-(5-{1-[(6,7-dimethoxy-2-methylquinazolin-4-yl)amino]ethyl}thiophen-2-yl)-3-[(dimethylamino)methyl]benzonitrile]	0.262	0.213

SMILES	IC50 [1] [µM]	IC50 [2] [µM]
Cc1nc(NC(C)c2ccc(Br)s2)c2cc(N3CCC(N(C)C)C3)ccc2n1 (stereo not drawn) [Example 414, N-[1-(5-bromothiophen-2-yl)ethyl]-6-[3-(dimethylamino)pyrrolidin-1-yl]-2-methylquinazolin-4-amine]	1.24	1.46
Cc1nc(NC(C)c2ccc(Br)s2)c2cc(N3CCN(C)CC3)ccc2n1 (stereo not drawn) [Example 416, N-[1-(5-bromothiophen-2-yl)ethyl]-2-methyl-6-(4-methylpiperazin-1-yl)quinazolin-4-amine]	0.697	1.14
Cc1nc(NC(C)c2ccc(-c3ccccc3CN(C)C)s2)c2cc(N3CCN(C)CC3)ccc2n1 (stereo not drawn) [Example 417, N-[1-(5-{2-[(dimethylamino)methyl]phenyl}thiophen-2-yl)ethyl]-2-methyl-6-(4-methylpiperazin-1-yl)quinazolin-4-amine]	0.0289	0.0353
Cc1nc(NC(C)c2ccc(-c3ccccc3CN(C)C)s2)c2cc(N3CCC(N(C)C)C3)ccc2n1 (stereo not drawn) [Example 418, N-[1-(5-{2-[(dimethylamino)methyl]phenyl}thiophen-2-yl)ethyl]-6-[3-(dimethylamino)pyrrolidin-1-yl]-2-methylquinazolin-4-amine]	0.0398	0.0451
Cc1nc(NC(C)c2ccc(Br)s2)c2cc(N3CCCC3)ccc2n1 (stereo not drawn) [Example 419, N-[1-(5-bromothiophen-2-yl)ethyl]-2-methyl-6-(pyrrolidin-1-yl)quinazolin-4-amine]	3.74	14.3
CC(=O)Nc1ccc2nc(C)nc(NC(C)c3ccc(-c4ccccc4CN(C)C)s3)c2c1 (stereo not drawn) [Example 420, N-(4-{[1-(5-{2-[(dimethylamino)methyl]phenyl}thiophen-2-yl)ethyl]amino}-2-methylquinazolin-6-yl)acetamide]	0.384	0.579
COc1ccc(-c2ccc(C(C)Nc3nc(C)nc4cc(OC)c(OC)cc34)s2)c(C)c1 (stereo not drawn) [Example 422, 6,7-dimethoxy-N-{1-[5-(4-methoxy-2-methylphenyl)thiophen-2-yl]ethyl}-2-methylquinazolin-4-amine]	0.914	3.6
Cc1nc(NC(C)c2ccc(-c3ccccc3CN(C)C)s2)c2cc(N)ccc2n1 (stereo not drawn) [Example 423, N4-[1-(5-{2-[(dimethylamino)methyl]phenyl}-2-thienyl)ethyl]-2-methylquinazoline-4,6-diamine]	0.187	0.303
Cc1nc(NC(C)c2ccc(Br)s2)c2cc(N3CCN(Cc4cccnc4)CC3)ccc2n1 (stereo not drawn) [Example 424, N-[1-(5-bromothiophen-2-yl)ethyl]-2-methyl-6-[4-(pyridin-3-ylmethyl)piperazin-1-yl]quinazolin-4-amine]	1.41	3.76
Cc1nc(NC(C)c2ccc(Br)s2)c2cc(NCCN3CCOCC3)ccc2n1 (stereo not drawn) [Example 425, N4-[l-(5-bromo-2-thienyl)ethyl]-2-methyl-N6-[2-(morpholin-4-yl)ethyl]quinazoline-4,6-diamine]	2.56	11.2
Cc1nc(NC(C)c2ccc(-c3ccccc3CN(C)C)s2)c2cc(N3CCN(Cc4cccnc4)CC3)ccc2n1 (stereo not drawn) [Example 426, N-[1-(5-{2-[(dimethylamino)methyl]phenyl}thiophen-2-yl)ethyl]-2-methyl-6-[4-(pyridin-3-ylmethyl)piperazin-1-yl]quinazolin-4-amine]	0.023	0.0315
CC(=O)NCCNc1ccc2nc(C)nc(NC(C)c3ccc(-c4ccccc4CN(C)C)s3)c2c1 (stereo not drawn) [Example 427, N-{2-[(4-{[1-(5-{2-[(dimethylamino)methyl]phenyl}thiophen-2-yl)ethyl]amino}-2-methylquinazolin-6-yl)amino]ethyl}acetamide]	0.0498	0.0739
COc1cc2nc(C)nc(NC(C)c3sc(Br)cc3Cl)c2cc1OC (stereo not drawn) [Example 428, N-[1-(5-bromo-3-chlorothiophen-2-yl)ethyl]-6,7-dimethoxy-2-methylquinazolin-4-amine]	0.705	1.02
COc1cc2nc(C)nc(NC(C)c3sc(-c4ccccc4CNC(=O)OC(C)(C)C)cc3Cl)c2cc1OC (stereo not drawn) [Example 429, tert-butyl [2-(4-chloro-5-{1-[(6,7-dimethoxy-2-methylquinazolin-4-yl)amino]ethyl}thiophen-2-yl)benzyl]carbamate]	3.05	5.04
COc1cc2nc(C)nc(NC(C)c3cc(Cl)c(-c4ccccc4CN)s3)c2cc1OC (stereo not drawn) [Example 430, N-[1-{5-[2-(aminomethyl)phenyl]-4-chlorothiophen-2-yl}ethyl]-6,7-dimethoxy-2-methylquinazolin-4-amine]	0.378	0.584
COc1cc2nc(C)nc(NC(C)c3cc(Cl)c(-c4ccccc4CN(C)C)s3)c2cc1OC (stereo not drawn) [Example 431, N-[1-(4-chloro-5-{2-[(dimethylamino)methyl]phenyl}thiophen-2-yl)ethyl]-6,7-dimethoxy-2-methylquinazolin-4-amine]	0.215	0.302
